Test results as given in patent US20250339391A1, “METHODS FOR EFFECTIVE MANAGEMENT OF PAIN” (South Rampart Pharma, Inc., priority 2024, published 2025).
Values joined by “and” are separate entries in the source; they are usually repeats but may differ in a detail not shown here. Equal entries are not always repeated.

Key:
[1] = Phase 1 single ascending dose (SAD) and food effect pharmacokinetics; assay type: in vivo, human
Procedure: A two-part randomized, double-blind, placebo-controlled Phase 1 trial was conducted to assess the safety, tolerability, PK and PD of SRP-001 ascending doses (Quotient Sciences, Miami, FL USA). The study was conducted in accordance with the International Council for Harmonisation of Technical Requirements for Pharmaceuticals for Human Use (ICH), Guideline for GCP: Consolidated Guidance (E6), and applicable regulatory requirements(s) including clinical research guidelines established by the Basic Principles defined in the U.S. 21 CFR Parts 50, 56, and 312 and the principles enunciated in the Declaration of Helsinki (revised version Fortaleza 2013). The clinical protocol and informed consent form were reviewed and approved by an Institutional Review Board (IRB; Advarra IRB, 6100 Merriweather Drive, Suite 600, Columbia, MD 21044; Quotient Protocol No. SRP-101 and Quotient Sciences Study No. QSC205130; Quotient Sciences Miami, 3898 NW 7th Street, Miami, FL 33126.). The study comprises a SAD (Part 1) assessment that includes a food effect assessment that contributes data to inform a subsequent MAD (Part 2) dose-ranging study. Safety measurements were collected throughout the study for all subjects. Blood samples were collected to determine the PK parameters of SRP-001. ClinicalTrials.gov identifier: NCT05484414
Fasted and Fed Dosing: NHVs were dosed in the fasted state. The calorie/fat content of meals was not required to be controlled. Subjects were provided with a standardized menu. Subjects were provided with a light snack and then fasted from all food and drink (except water) for a minimum of 10 h on the day prior to dosing until approximately 4 h post-dose, at which time lunch was provided. An evening meal was provided at approximately 10 h post-dose/post-morning dose and an evening snack at approximately 14 h post-morning dose. Food effect was studied in the cohort receiving 900 mg SRP-001 in the fed state. A standard high-fat breakfast was given 30 min before dosing. On Day −1, these NHVs were provided with a light snack and fasted from all food and drink (except water) until the following morning, when they were provided with a standard high-fat breakfast. The breakfast had to be consumed over a maximum period of 25 min, with dosing occurring 30 min after the start of breakfast. Subjects were encouraged to eat their meal evenly over the 25 min period. It was acknowledged that some subjects took less time to eat, but dosing still occurred 30 min after the start of breakfast. Subjects had to consume at least 90% to be eligible for dosing. The start and stop time and percentage of the breakfast consumed were recorded in the source. Acceptable deviations for the pre-dose meal from the nominal time point were: 1) Pre-dose meal was provided within +5 min of the nominal time point, 2) Lunch was provided at approximately 4 h post-dose, 3) an evening meal at approximately 10 h post-dose, and 4) an evening snack at approximately 14 h post-dose. On subsequent days, meals were provided at appropriate times.
SRP-001 administration and PK/PD determination: Following a single administration of 300-2,000 mg SRP-001 oral suspension in the fasted state (and in cohort 4, 900 mg in the fed state), plasma concentrations of SRP-001 were observed from the first sampling timepoint of 1 h post-dose for all subjects.

[2] = test system: Chinese Hamster Ovary Cells; assay: In vitro mammalian chromosomal aberration assay; assay type: cell-based; details: for doses with cytotoxicity: non-activated 20-h exposure
Procedure: To further evaluate the potential genotoxicity of SRP-001 and determine the validity of the in vitro findings, a second in vivo assay, a GLP-compliant Comet assay, was conducted in accordance with ICH S2(R1) Guidance on Genotoxicity Testing and Data Interpretation for Pharmaceuticals Intended for Human Use. […] SRP-001 was tested to evaluate its mutagenic potential by measuring its ability to induce reverse mutations at selected loci of several strains of Salmonella typhimurium (S. typhimurium) and at the tryptophan locus of Escherichia coli (E. coli) strain WP2 uvrA in the presence and absence of an exogenous metabolic activation system (Bioreliance, Rockville, MD USA). Dimethyl sulfoxide (10% DMSO) was used as the vehicle. The dose levels tested in the preliminary toxicity assay were 6.67, 10.0, 33.3, 66.7, 100, 333, 667, 1000, 3333, and 5000 μg per plate. No precipitate was observed. […] The dose levels tested in the mutagenicity assay were 100, 333, 667, 1000, 3333, and 5000 μg per plate. […] In the preliminary toxicity assay, the doses tested ranged from 0.0405 to 405 μg/mL (1 mM), which was the limit dose for this assay (Bioreliance, Rockville, MD USA).
The doses selected for evaluation of chromosome aberrations were 150, 300, and 405 μg/mL for the non-activated and S9-activated 4-h exposure groups; and 10, 40, and 80 μg/mL for the non-activated 20-h exposure group. […] The induction of structural aberrations was outside the 95% control limit of the historical negative control data of 0.00% to 2.79%. […] However, the induction of structural aberrations was within the 95% control limit of the historical negative control data of 0.00% to 4.28%. […] The induction of structural aberrations was outside the 95% control limit of the historical negative control data of 0.00% to 2.68%.

In the case of `CCN(CC)C(=O)c1ccccc1S(=O)(=O)NCC(=O)Nc1ccc(O)cc1` [SRP-001, N,N-diethyl-2-[[2-(4-hydroxyanilino)-2-oxo-ethyl]sulfamoyl]benzamide], the “AUC(0-48), geometric mean” value ([1]; 300 mg fasted) was 1630 ng·h/mL, the “AUC(0-inf), geometric mean” value ([1]; 300 mg fasted) was 1630 ng·h/mL and the “T1/2, geometric mean” value ([1]; 300 mg fasted) was 2.38 h. The “dose dependence of geometric mean Cmax and AUC(0-∞)” value ([1]; 300 mg to 2,000 mg) was “dose-proportional or super-proportional increase”, the “AUC(0-24), geometric mean” value ([1]; 600 mg fasted) was 5660 ng·h/mL and the “AUC(0-inf), geometric mean” value ([1]; 600 mg fasted) was 5840 ng·h/mL. For the same compound, the “Cmax, geometric mean” value ([1]; 600 mg fasted) was 1740 ng/mL, the “T1/2, geometric mean” value ([1]; 600 mg fasted) was 5.0 h and 5.04 h and the “AUC(0-24), geometric mean” value ([1]; 900 mg fasted) was 6870 ng·h/mL. For the same compound, the “AUC(0-inf), geometric mean” value ([1]; 900 mg fasted) was 6970 ng·h/mL, the “Cmax, geometric mean” value ([1]; 900 mg fasted) was 2700 ng/mL and the “T1/2, geometric mean” value ([1]; 900 mg fasted) was 3.26 h. For the same compound, the “AUC(0-24), geometric mean” value ([1]; 900 mg fed) was 6250 ng·h/mL, the “AUC(0-inf), geometric mean” value ([1]; 900 mg fed) was 5910 ng·h/mL and the “Cmax, geometric mean” value ([1]; 900 mg fed) was 1200 ng/mL. The “T1/2, geometric mean” value ([1]; 900 mg fed) was 3.79 h, the “relative bioavailability based on geometric mean AUC(0-24)” value ([1]; 900 mg fed vs fasted) was 99.2% and the “relative bioavailability based on geometric mean AUC(0-inf)” value ([1]; 900 mg fed vs fasted) was 101%. The “relative bioavailability based on geometric mean AUC(0-last)” value ([1]; 900 mg fed vs fasted) was 98.4%, the “relative bioavailability based on geometric mean Cmax” value ([1]; 900 mg fed vs fasted) was 48.4% and the “AUC(0-24), geometric mean” value ([1]; 2000 mg fasted) was 18900 ng·h/mL. The “AUC(0-inf), geometric mean” value ([1]; 2000 mg fasted) was 19600 ng·h/mL, the “Cmax, geometric mean” value ([1]; 2000 mg fasted) was 4590 ng/mL and the “T1/2, geometric mean” value ([1]; 2000 mg fasted) was 5.96 h. For the same compound, the “geometric mean AUC(0-24) as share of the exposure limits defined in the protocol” value ([1]; 2000 mg fasted) was 31%, the “geometric mean Cmax as share of the exposure limits defined in the protocol” value ([1]; 2000 mg fasted) was 34% and the “increase of geometric mean AUC(0-24)” value ([1]; dose from 300 to 600 mg) was 3.5 fold. The “increase of geometric mean Cmax” value ([1]; dose from 300 to 600 mg) was 2.6 fold, the “increase of geometric mean AUC(0-24)” value ([1]; dose from 600 to 900 mg) was 1.2 fold and the “increase of geometric mean Cmax” value ([1]; dose from 600 to 900 mg) was 1.6 fold. For the same compound, the “increase of geometric mean AUC(0-24)” value ([1]; dose from 900 to 2000 mg) was 2.8 fold, the “increase of geometric mean Cmax” value ([1]; dose from 900 to 2000 mg) was 1.7 fold and the “induction of numerical chromosomal aberrations, conclusion” value [2] was “negative for the induction of numerical chromosomal aberrations”. The structural aberrations ([2]; Chinese hamster, 20 h, 80 μg/mL) was 3.7%, the dose with cytotoxicity ([2]; chromosome aberration assay, non-activated 4-h exposure) was 405 µg/mL and the doses with cytotoxicity ([2]; chromosome aberration assay) was no less than 70 µg/mL. It also gave a doses with cytotoxicity ([2]; preliminary toxicity assay) of no less than 122 µg/mL.
